The subject of experiment [1] is HGC27-R cells. The experiment can be described thus: ROS determination assay (DCF-DA). The following applies: 1 µM, 48 h, vs untreated cells. The experiment is classed as cell-based, human. As for the experimental part:
(§1) For ROS analysis the procedure described in [26] was adapted. […] After the incubation, all the samples were incubated for 30 minutes at 37°C in the dark with 50 µM 2’,7’-dichlorofluorescein diacetate, DCF-DA.
(§2) Cells were then washed, detached with trypsin/EDTA solution, centrifuged at 12,000 g for 10 min and re-suspended in1mL PBS. At least 10.000 total events were acquired using an Attune Nxt Acoustic Focusing Cytometer (Life Technologies Corporation) equipped with a blue laser (488 nm). Analysis was performed and data were visualized using Attune™ NxT v2.6 Software. The percentage of green fluorescent cells and the green fluorescence median were measured on a mono-parametric histogram based on DCF-DA fluorescence.

The subject of experiment [2] is HGC27-S cells. The experiment can be described thus: ROS determination assay (DCF-DA). The conditions noted are these: 1 µM, 48 h, vs untreated cells. Type of experiment: cell-based, human. As to the method:
as §1, §2

Experiment [3] deals with AGS cells. The experiment can be described thus: Muse Annexin V apoptosis assay. The experiment is classed as cell-based, human. The conditions noted are these: 48 h, 6 µM AM630, 10 µM others. An excerpt: (§3) After the specified drug treatments, the cells were processed using the Muse Annexin V/Dead Cell Assay Kit (Luminex Corporation, Austin, USA) for quantitative analysis of live, early/ late apoptotic, and dead cells on a Muse Cell Analyzer. Briefly, the assay utilized Annexin V to detect phosphatidylserine on the external membrane of apoptotic cells. The fluorescent signal emitted by dye-conjugated antibodies was detected by flow cytometry technology (Muse Cell Analyzer, Luminex Corporation, Austin, USA). 7-Amino-Actinomycin D (7-AAD) dead cell marker was also used. The cells were then analyzed according to the user’s guide. […] After 48 h treatments the cells were processed according to the user’s guide and analyzed with the Muse caspase-3/7 kit (Millipore).The assay provides the relative percentage of living, early/late apoptotic or dead cells.

In experiment [4] the test system is HGC27-S cells. The experiment is described as follows: Muse Annexin V apoptosis assay. The experiment is classed as cell-based, human. The following applies: 48 h, 6 µM AM630, 10 µM others.
Text: as §3

The target in experiment [5] is T1, FAAH Human recombinant (Homo sapiens, UniProt O00519).
T1 construct: purchased Cayman Chemical
T1 sequence (O00519 1-579): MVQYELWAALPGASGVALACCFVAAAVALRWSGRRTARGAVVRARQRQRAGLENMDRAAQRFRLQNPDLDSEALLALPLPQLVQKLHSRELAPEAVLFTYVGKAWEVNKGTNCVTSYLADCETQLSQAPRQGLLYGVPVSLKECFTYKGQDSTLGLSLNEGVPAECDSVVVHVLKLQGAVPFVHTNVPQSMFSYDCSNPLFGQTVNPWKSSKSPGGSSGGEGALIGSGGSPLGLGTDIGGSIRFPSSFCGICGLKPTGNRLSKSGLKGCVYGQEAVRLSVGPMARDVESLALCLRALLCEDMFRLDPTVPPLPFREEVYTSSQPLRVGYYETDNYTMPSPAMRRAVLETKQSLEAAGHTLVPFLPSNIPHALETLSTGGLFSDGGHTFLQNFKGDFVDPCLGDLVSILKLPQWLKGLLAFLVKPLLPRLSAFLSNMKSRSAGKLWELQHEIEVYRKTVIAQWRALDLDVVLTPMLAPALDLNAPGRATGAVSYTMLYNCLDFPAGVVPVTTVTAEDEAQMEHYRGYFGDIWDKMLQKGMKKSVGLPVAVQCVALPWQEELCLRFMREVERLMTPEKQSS
The experiment can be described thus: FAAH inhibition assay. Type of experiment: biochemical. The conditions noted are these: ± SEM, substrate AMC-AA 1 µM. As for the experimental part: Assays were performed using 96-well black flat-bottom microtiter NBS plates (COSTAR flat black). […] The substrate (7-amino-4-methyl-2 H-1-benzopyran-2-one-5Z,8Z,11Z,14Z-eicosatetraen-amide, AMC-AA, 1µM final concentration) was then added, and the assay was incubated for 2 h at 37 °C in a TECAN infinite M1000Pro plate reader (Tecan, Männedorf, Switzerland) which measured the fluorescence from each well every 30 s (λex = 340 nm, λem = 450 nm), determining FAAH activity as relative fluorescence units (RFU). Control wells lacking the inhibitor and blank wells lacking both inhibitor and enzyme were used to calculate the percent inhibition for each tested compound. IC50 values were calculated via GraphPad Prism 5.0 (GraphPad Software, La Jolla, CA, USA) and are reported as mean ± SEM of at least three independent measurements performed in triplicate.

In experiment [6] the test system is HGC27-S/R and AGS cell lines. The experiment can be described thus: VEGFA in cell culture medium (ELISA), all lines. The conditions noted are these: all the cell lines investigated, 48 h. Type of experiment: cell-based, human. As to the method:
(§4) The amount of VEGFA secreted in the culture medium by HGC27-S/R and AGS treated cells was measured using a highly sensitive Enzyme-Linked Immunosorbent Assay (ELISA), Quantikine Kit ELISA (R&D Systems, Minneapolis, MN, USA), according to the manufacturer’s instructions. The measured values were normalized to the number of cells.

Experiment [7] has as its system NCI-N87_LUC cell line. The experiment can be described thus: Ki67 immunohistochemistry of tumor explants. The experiment is classed as in vivo, CD1-nude female mice. The following applies: GP2/GP3 (10 and 20 mg/kg); vehicle 35%. As to the method: Tissue blocks fixed in formalin and embedded in paraffin were obtained from the explants of the tumor masses of each specimen. Sections stained with hematoxylin and eosin (H&E) were reviewed by a pathologist to confirm the adequacy of the sample, and to evaluate the morphologic and/or pathological characteristics of each sample. […] IHC analysis was carried out in sections after deparaffinization for 30 min and then rehydration in grades of alcohol. Antigen retrieval was performed at 90 °C for 20 min with Tris-borate-EDTA Buffer. To assess the Ki67, IHC was again carried out on all cases on paraffin-embedded sections using an anti-Ki67 Ab diluted 1:100 (Mib-1; DAKO) following the manufacturer’s instructions.

In experiment [8] the test system is CB2R. The experiment can be described thus: CB2R affinity (literature values). The conditions noted are these: CB2R vs CB1R. Type of experiment: binding.
Experiment [9] concerns HGC27-S cells. The experiment is described as follows: VEGFA in cell culture medium (ELISA). The experiment is classed as cell-based, human. The conditions noted are these: 10 µM, 48 h, untreated 3.82. As to the method:
as §4
For orientation: In an ELISA, binding on a coated surface is turned into a signal by an enzyme label.

Experiment [10] has as its system circulating cytokines (eotaxin, G-CSF, p40IL-12). The experiment can be described thus: Serum cytokine quantification (Bio-Plex). The experiment is classed as in vivo, CD1-nude female mice. As to the method: Serum levels of 23 cytokines [G-CSF, GM-CSF, GRO/KC (CXCL1), IFN-γ, IL-1α, IL-1β, IL-2, IL-3, IL-4, IL-5, IL-6, IL-9, IL-10, IL-12 (p70), IL-13, IL-17 A, IL-18, MCP-1 (CCL2), MIP-1α, MIP-1β, RANTES, TNF-α, and eotaxin] were measured using Bio-Plex Pro Rat Cytokine 23-Plex™ (#M60009RDPD) magnetic bead-based assays (Bio-Rad Laboratories) on the Bio-Plex® platform (Bio-Rad), according to the manufacturer’s instructions. […] Cytokine expression (pg/mL) for each sample was multiplied by the dilution factor prior to the percent baseline calculation.

With `COc1ccc(C(=O)c2c(C)n(CCN3CCOCC3)c3cc(I)ccc23)cc1` [AM630, reference compound], the ROS production entry in experiment [1] is listed as “induced an increase in ROS production”. The “intracellular ROS production” value in experiment [2] is “significant increase in intracellular ROS production”. Moreover, the “increase in apoptotic cells compared to untreated cells (Annexin V)” value in experiment [3] and in experiment [4] was 8 fold in each case. For the same compound, the “FAAHi IC50” value in experiment [5] was “low FAAH inhibition activity”. In addition, the IC50 (usually the concentration that gives 50% inhibition) in [5] (read-out: FAAHi IC50) came to 20 ± 2.8 µM. In addition, the “VEGFA secretion in culture medium (in words)” value in [6] is listed as “increase in VEGFA secretion”.

As for `CCCCCNc1ccccc1C(=O)NC12CC3CC(CC(C3)C1)C2` [ASF151], the ROS production result in experiment [1] is “induced an increase in ROS production”.

In the case of `O=C(NC12CC3CC(CC(C3)C1)C2)c1ccccc1OCc1ccccc1` [CC48], the “percentage of Ki67-stained nuclei in tumor” value in [7] was 15–20%. Besides, the “intracellular ROS production” value in experiment [2] is listed as “significant increase in intracellular ROS production”. Moreover, the “increase in apoptotic cells compared to untreated cells (Annexin V)” value is 6 fold in experiment [3] and 2 fold in experiment [4]. Further, in experiment [8], the “fold higher affinity for CB2R compared to CB1R” value was 16 fold. Further, the “VEGFA secretion in culture medium” value in [9] was 2.6 pg/mL/cell. Besides, the “serum G-CSF level vs GP1” value in experiment [10] (GP2, 10 mg/kg, p < 0.01) is “significant decrease”; in experiment [10] (GP3, 20 mg/kg, p < 0.05), “maintained at the highest dose”. Besides, in [10] (GP3, 20 mg/kg), the “serum eotaxin level vs GP1” value is reported as “tended to decrease”. The “serum p40IL-12 level vs GP1” value in experiment [10] (GP3, 20 mg/kg, p < 0.05) is “significant decrease”.

The values are drawn from publication PMC12265377, “CC48 a new CB2R agonist/FAAH inhibitor dual drug blocks gastric cancer progression and overcomes paclitaxel resistance” (Journal of Experimental & Clinical Cancer Research : CR, 2025).
